≈ marks a conversion by molar mass, not a printed value. Read-outs that look alike come from different tables or passages of the source.
How the values were obtained:
human NCX 1.1 = molecular target: T1, human NCX 1.1 (Homo sapiens, UniProt P32418); assay: Fluorescence screening assay for hNCX 1.1 inhibition (reverse mode, Sf9 cells); assay type: cell-based; settings: Sf9 cells expressing human NCX1.1, reverse mode, fluorescence; n=3 assays
T1 construct: expressed in transfected cells
Method: Spodoptera frugiperda (Sf9; RRID:CVCL_0549) cells are widely used for the transient and stable expression of recombinant proteins. Here, Sf9 cells were stably transfected with human NCX 1.1 and maintained in spinner flasks with insect cell culture medium (TNM‐FH), supplemented with 10% FBS, antibiotic–antimycotic solution, and 50 μg·ml^−1 of blasticidin at 28°C in a non‐humidified, CO2‐free atmosphere. The Sf9 cell suspension was subcultured three times a week.
NCX reverse mode activity was stimulated via a 50% dilution of the extracellular Na^+ level using the internal pipettor of FLEXstation, a fluorescence imaging plate reader (Molecular Devices, USA), while simultaneously monitoring intracellular calcium levels. After dilution, the concentration of other ions remained the same, but Na^+ concentration was diluted to the half of original concentration of 172 to 86 mM. For Sf9 insect cells, normal extracellular Na^+ ion concentration is 172 mM. Typically, 50 μl of a solution containing 150,000–200,000 Sf9–NCX cells was loaded onto each well of a 96‐well plate. Cells were preincubated with the intracellular calcium dye Fluo‐4 and Fluo‐6, and the concentrations of the test compound (three replicates) were determined for about 1 h at room temperature before experimentation. The extracellular solution contained (in mM) 172 NaCl, 10 HEPES, 1 CaCl2, 1.2 MgCl2, 0.33 NaH2PO4, 5 glucose, and 5 probenecid. The pH was adjusted to 7.4 with NaOH. The extracellular Na^+ was diluted by the addition of a Na^+‐free extracellular solution (containing in mM: 147 N‐methyl‐D‐glucamine (NMDG), 10 HEPES, 1 CaCl2, 1.2 MgCl2, 0.33 NaH2PO4, and 5 glucose with the pH adjusted by HCl to 7.4)‐induced robust and reproducible elevation of intracellular calcium. The osmolarity of both solutions was adjusted to 340–355 mOsm in order to match the Sf9 cell media osmolarity. In each plate, the IC50 determination for each test compound was based on relative fluorescence changes in comparison with control and 5‐mM nickel acetate‐induced NCX inhibition.

hNCX1 = hNCX1 (Homo sapiens, UniProt P32418); assay: Confirmatory fluorescence assay for hNCX1 inhibition (forward mode, HEK293 cells, Charles River); assay type: cell-based
Method: A confirmatory hNCX1 inhibition assay was performed in Charles River Laboratories, Cleveland. Briefly, HEK293 cells stably expressing hNCX1 were plated in 384‐well black wall, clear‐bottom microtitre plates and the next day loaded with Fluo‐8 for 30 min at 37°C. A plate was inserted into a FLIPR^TETRA, and a baseline was recorded during a preincubation period where test compound or vehicle in a Na^+‐free HB‐PS containing thapsigargin (6 μM) and […] (30 μM) was added to each well for ~5 min. Next, the NCX1 stimulation period was recorded in which Na^+‐containing HB‐PS (with 2‐μM thapsigargin and 10‐μM FCCP) was added. The experiments were performed at room temperature. The kinetic data generated were reduced for each well to maximum relative fluorescence units (RFU) minus minimum RFU after subtracting bias based on the first sample. The mean of the max–min RFU values during the stimulation period for the 3–4 replicates at each concentration on a plate was then plotted versus concentration and fitted to a Hill equation.

Solubility = assay type: physicochemical; settings: pH 7.4 phosphate buffer
NCX [1] = tested on: NCX; design: method as in ref 1 (a number printed in a supplementary file, which may have a reference list of its own: not looked up in the article's list); settings: Rabbit, cited from earlier work
NCX [2] = tested on: NCX; design: method as in ref 1 (a number printed in a supplementary file, which may have a reference list of its own: not looked up in the article's list); settings: Rat, cited from earlier work
MAO B = molecular target: T2, MAO B (Homo sapiens, UniProt P27338); assay: MAO B inhibition (Table S2); assay type: biochemical; settings: 10 μM
T2 sequence (P27338 1-520): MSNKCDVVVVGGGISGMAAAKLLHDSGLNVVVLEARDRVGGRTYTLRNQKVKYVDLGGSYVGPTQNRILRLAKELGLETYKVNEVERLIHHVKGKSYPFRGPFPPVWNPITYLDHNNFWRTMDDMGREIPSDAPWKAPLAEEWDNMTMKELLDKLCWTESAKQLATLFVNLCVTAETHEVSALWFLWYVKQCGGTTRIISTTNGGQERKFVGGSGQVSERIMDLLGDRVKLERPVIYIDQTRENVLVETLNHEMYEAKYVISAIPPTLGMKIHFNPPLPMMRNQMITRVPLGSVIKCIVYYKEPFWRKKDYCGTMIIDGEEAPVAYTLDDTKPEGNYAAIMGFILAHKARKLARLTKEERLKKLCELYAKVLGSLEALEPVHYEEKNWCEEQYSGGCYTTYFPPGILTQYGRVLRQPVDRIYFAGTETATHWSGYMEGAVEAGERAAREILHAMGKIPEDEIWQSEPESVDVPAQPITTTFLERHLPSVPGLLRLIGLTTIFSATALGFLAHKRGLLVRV

MAO A = molecular target: T3, MAO A (Homo sapiens, UniProt P21397); assay: MAO A inhibition (Table S2); assay type: biochemical; settings: 10 μM
T3 sequence (P21397 1-527): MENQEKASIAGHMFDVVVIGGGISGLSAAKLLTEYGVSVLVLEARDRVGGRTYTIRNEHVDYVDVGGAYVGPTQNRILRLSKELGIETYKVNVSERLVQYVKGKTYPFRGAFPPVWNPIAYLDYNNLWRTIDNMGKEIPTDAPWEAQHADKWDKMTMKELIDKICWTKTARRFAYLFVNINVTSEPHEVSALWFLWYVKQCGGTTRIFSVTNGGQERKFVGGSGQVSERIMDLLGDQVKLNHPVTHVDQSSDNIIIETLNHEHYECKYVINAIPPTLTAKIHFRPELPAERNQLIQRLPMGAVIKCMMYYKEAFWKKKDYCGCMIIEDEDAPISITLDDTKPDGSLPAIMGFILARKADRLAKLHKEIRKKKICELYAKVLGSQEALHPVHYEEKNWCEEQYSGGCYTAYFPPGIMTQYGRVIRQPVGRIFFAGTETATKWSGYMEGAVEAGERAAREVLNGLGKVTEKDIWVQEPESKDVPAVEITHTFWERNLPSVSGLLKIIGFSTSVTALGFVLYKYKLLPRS

NCX [3] = tested on: NCX; design: method as in ref 4 (a number printed in a supplementary file, which may have a reference list of its own: not looked up in the article's list); settings: CCL39 fibroblast, cited from earlier work
hERG = hERG (Homo sapiens, UniProt Q12809); assay: hERG IC50 of Table 1 / Table S2 (method not assigned); assay type: cell-based; settings: human; n=4 assays
Chain of hERG (Q12809 whole entry): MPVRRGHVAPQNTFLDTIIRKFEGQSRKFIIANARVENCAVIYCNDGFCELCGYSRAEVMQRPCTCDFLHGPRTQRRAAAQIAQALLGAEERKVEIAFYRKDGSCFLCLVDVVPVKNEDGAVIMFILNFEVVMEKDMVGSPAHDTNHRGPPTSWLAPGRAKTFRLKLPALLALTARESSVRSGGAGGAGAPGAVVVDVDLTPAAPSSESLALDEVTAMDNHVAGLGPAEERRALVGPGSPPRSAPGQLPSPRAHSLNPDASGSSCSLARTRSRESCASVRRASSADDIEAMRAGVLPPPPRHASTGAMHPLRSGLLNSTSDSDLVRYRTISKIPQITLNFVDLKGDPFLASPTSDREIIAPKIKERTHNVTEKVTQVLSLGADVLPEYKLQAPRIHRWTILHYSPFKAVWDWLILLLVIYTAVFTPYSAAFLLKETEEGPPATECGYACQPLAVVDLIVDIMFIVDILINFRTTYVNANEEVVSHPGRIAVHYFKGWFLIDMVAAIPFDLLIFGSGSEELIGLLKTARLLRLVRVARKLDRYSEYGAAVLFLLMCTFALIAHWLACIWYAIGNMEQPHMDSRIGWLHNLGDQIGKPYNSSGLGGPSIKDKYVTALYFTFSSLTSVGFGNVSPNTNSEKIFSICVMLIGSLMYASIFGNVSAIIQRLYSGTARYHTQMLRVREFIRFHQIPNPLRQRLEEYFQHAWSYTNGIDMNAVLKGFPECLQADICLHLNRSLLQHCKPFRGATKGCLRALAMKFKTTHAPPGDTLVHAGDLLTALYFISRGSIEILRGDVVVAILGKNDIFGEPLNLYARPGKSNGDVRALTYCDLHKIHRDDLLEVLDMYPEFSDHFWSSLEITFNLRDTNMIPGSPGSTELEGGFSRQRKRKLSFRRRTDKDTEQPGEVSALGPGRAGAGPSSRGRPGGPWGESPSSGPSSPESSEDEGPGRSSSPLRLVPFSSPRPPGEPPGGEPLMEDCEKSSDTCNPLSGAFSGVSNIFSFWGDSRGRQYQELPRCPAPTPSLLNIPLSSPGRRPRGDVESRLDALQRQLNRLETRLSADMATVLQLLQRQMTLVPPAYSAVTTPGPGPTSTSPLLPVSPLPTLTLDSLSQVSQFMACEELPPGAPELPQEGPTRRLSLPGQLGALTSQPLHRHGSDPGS

NCX [4] = tested on: NCX; design: method as in ref 9 (a number printed in a supplementary file, which may have a reference list of its own: not looked up in the article's list); settings: SH-SY5Y neuron, cited from earlier work
L-Type Ca2+ Channel = settings: Table S2; cited from earlier work

Structure (SMILES)	IC50 (human NCX 1.1) [µM]	IC50 (hNCX1; HEK293, forward mode, Table S2, read-out: hNCX1-HEK IC50) [µM]	Solubility class (Solubility)	IC50 (NCX [1]; read-out: IC50 NCX forward) [µM]	IC50 (NCX [1]; read-out: IC50 NCX reverse) [µM]	IC50 (NCX [2]; read-out: IC50 NCX forward) [µM]	IC50 (NCX [2]; read-out: IC50 NCX reverse) [µM]	inhibition at 10 µM (MAO B) [%]	IC50 (hNCX1; HEK293, text, read-out: IC50 hNCX1 (forward mode)) [µM]	solubility (Solubility; phosphate buffer, pH 7.4, aqueous buffer, read-out: Solubility class) [µg/mL]	inhibition at 10 µM (MAO A) [%]	IC50 (NCX [3]; read-out: IC50 NCX forward) [µM]	IC50 (NCX [3]; read-out: IC50 NCX reverse) [µM]	IC50 (hERG) [µM]	IC50 (NCX [4]; read-out: IC50 NCX forward) [µM]	IC50 (NCX [4]; read-out: IC50 NCX reverse) [µM]	IC50 (L-Type Ca2+ Channel) [µM]
N=C(N)SCCc1ccc(OCc2ccc([N+](=O)[O-])cc2)cc1 [KB-R7943]	3.79	3.59	Moderate (moderate solubility between 10-100 µg/ml)	0.243	0.309	0.12	0.061										
CCOC(=O)C1CSC(Cc2ccc(OCc3ccc([N+](=O)[O-])cc3)cc2)N1 (stereo not drawn) [SN‐6, 2‐[4‐(4‐nitrobenzyloxy)benzyl]thiazolidine‐4‐carboxylic acid ethyl ester]	16							80	> 100	10 to 100 (≈ 24.8 to 248 µM)	38	> 30	29	102			
Nc1cccc(CNC(=O)c2ccc(Oc3ccc(OCc4cccc(F)c4)cc3)nc2)c1 [YM-244769]															0.068	0.096	> 3
